# Article PMC4948010 (ACS Medicinal Chemistry Letters, 2016)
# What was measured:
# human recombinant GK = biological target: T1, human recombinant GK (Homo sapiens, UniProt P35557); assay: Glucokinase EC50 assay; format: biochemical; details: compared with the other acyclic C5 analogues of Table 1
# T1 sequence (P35557 1-465): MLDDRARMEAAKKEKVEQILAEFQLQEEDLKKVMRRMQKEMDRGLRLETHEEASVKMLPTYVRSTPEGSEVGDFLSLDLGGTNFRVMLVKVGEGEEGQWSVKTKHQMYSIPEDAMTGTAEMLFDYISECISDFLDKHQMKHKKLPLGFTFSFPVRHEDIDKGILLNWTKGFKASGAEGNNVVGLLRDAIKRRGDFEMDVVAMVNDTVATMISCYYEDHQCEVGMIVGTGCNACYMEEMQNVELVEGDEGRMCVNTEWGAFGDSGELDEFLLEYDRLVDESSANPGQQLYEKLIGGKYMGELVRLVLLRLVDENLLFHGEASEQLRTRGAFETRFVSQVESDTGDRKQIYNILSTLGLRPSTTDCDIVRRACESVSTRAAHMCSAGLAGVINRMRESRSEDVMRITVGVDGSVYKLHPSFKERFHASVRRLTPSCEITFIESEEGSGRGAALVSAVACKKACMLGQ
# [1] = Intrinsic clearance in rat liver microsomes; format: in vitro ADME
# ob/ob mice = assay: Oral glucose tolerance test in ob/ob mice; format: in vivo, mouse; details: doses 3, 10 and 30 mg/kg oral
# male Sprague–Dawley rats = assay: Fed blood glucose test in male Sprague-Dawley rats; format: in vivo, rat; details: doses 3, 10, 30 and 100 mg/kg oral
# [2] = Metabolic identification studies; format: in vitro ADME
structure (smiles),measurement,setting,value
CNC(=O)Nc1cc(Oc2cncc(C)c2)c(C(C)CO)cn1 (centres unmarked) [Compound 5],loss in potency,human recombinant GK,approximately 5 fold
CNC(=O)Nc1cc(Oc2cncc(C)c2)c([C@H]2C[C@@H](O)C2)cn1 [Compound 7],microsomal CLint,[1],24 µL/min/mg
same,blood glucose levels during an oral glucose tolerance test,ob/ob mice,dose-proportional decrease
CNC(=O)Nc1cc(Oc2cncc(OC)c2)c([C@H]2CCCOC2)cn1 [Compound 21],blood glucose levels,male Sprague–Dawley rats,dose-proportional decrease
same,site of oxidation (metabolic identification),[2],THP ring as one site of oxidation
